# Experiments:
# [1] = Fluorescence spectroscopy (excitation and emission spectra); assay type: physicochemical
# Protocol: The spectral characteristics of the conjugates 1–5 were determined using a Spark 20M plate reader (Tecan, Switzerland). The emission and excitation of all conjugates were measured in triplicates with a bandwidth of 5 nm in a 96-well Half-Area Microplate at a concentration of 100 μM dissolved in phosphate buffered saline (PBS). The fluorescence intensity was plotted as normalised relative fluorescence units (RFU).
# Using conjugates 1–5, we evaluated how the conjugation of the different fluorophores to EDAF (Fig. 1a) affected the optical properties. To do so, we defined their individual excitation and emission spectra, and determined the optimal FLI parameters. The different conjugates (Fig. 1b) were diluted in medium or in DMSO and the peak excitation and emission obtained are reported in Table 1, Fig. 1c and Fig. S17.
# [2] = system: Skov-3 subcutaneous xenografts; assay: In vivo biodistribution and optimal time point FLI in subcutaneous Skov-3 xenograft model (IVIS Spectrum); set-up: species or system NOD-scid IL2Rg^null mice; conditions: for tumour to background ratio (TBR): mean ± SD; for excretion route: mice
# Protocol: (§1) All applicable institutional and/or national guidelines for the care and use of animals were followed. All experiments were approved by The Norwegian Animal Research Authority and conducted according to The European Convention for the Protection of Vertebrates Used for Scientific Purposes (Application ID 14128). NOD-scid IL2Rg^null mice (referred to as NSG) were housed in groups of ≤ 5 in individually ventilated cages changed twice per month and kept in a 12-h […] schedule at 21 °C at the Vivarium, University of Bergen. Observations for general condition and body weights were recorded twice per week and, when indicated, the animals were euthanised according to institutional guidelines. Skov-3 and A549 subcutaneous xenografts were established through bi-lateral flank injections of 5 × 10^6 cells, resuspended in 100 μL PBS containing 16.7% Matrigel (Corning Inc., MA, USA). Tumour volumes were measured weekly with a digital calliper and calculated using the ellipsoid volume formula: Volume = π (length × width × height)/6.
# For biodistribution assessment of conjugates 1–5, mice were intravenously (iv) injected with 100 μL of a 10-μM conjugate solution when mean tumour volumes reached ≈150 mm^3, corresponding to a dose of […]. The dose was chosen on the basis of preclinical mouse models previously performed using folate-NIR (OTL38) FLI [28]. To determine the timepoint for the optimal TBR, optical imaging was performed at 0 h, 0.5 h, 1 h, 2 h, 4 h, 6 h, 8 h, 24 h and 48 h using the IVIS Spectrum. Fluorescence signals were analysed with the Living Imaging® software v4.5 (PerkinElmer Inc.) and expressed as average radiance (p/s/cm^2/sr). Regions of interest (ROI) were manually drawn around the subcutaneous tumours in the flanks and the adjacent tissue to calculate TBRs at all time points. Next, subcutaneous xenograft models were imaged at the pre-determined optimal time points, which were 4 h for conjugates 1, 2 and 3 and 24 h for conjugates 4 and 5.
# [3] = system: Skov-3 and A549 subcutaneous xenografts; assay: Ex vivo tumour and organ biodistribution (IVIS Spectrum and FLARE intraoperative system); assay type: in vivo, NOD-scid IL2Rg^null mice; conditions: for ex vivo fluorescence signal in tumours (FLARE): Skov-3 tumour; for ex vivo fluorescence in the kidneys (FLARE): exposure time 1000 ms
# Protocol: as §1
# Organ biodistribution was assessed ex vivo for each conjugate in Skov-3 and in the control cell line, A549. Four hours after iv administration of 1, 2 and 3 and 24 h after injection of 4 and 5 (100 μl, 10 μM), mice were euthanised and tumours and organs were harvested. FLI was performed with the IVIS Spectrum, and subsequently, fluorescence was acquired using the FLARE® intraoperative system (Curadel LLC), employing the NIR channel #2 (λex = 760 ± 3 nm and λem = > 781 nm longpass) at three different exposure times (500, 1000 and 2000 ms) at a gain of 1. IVIS Spectrum data were analysed as previously described, and FLARE data were analysed using ImageJ (Fiji, version 1.52p, [29]) and the integrated FLARE analysis platform using grey scale values expressed in arbitrary units (AU).
# [4] = system: Skov-3 and A549 subcutaneous xenografts; assay: In vivo FLI at optimal time points, Skov-3 versus A549 xenografts (target specificity); set-up: species or system NOD-scid IL2Rg^null mice; conditions: 4 h after iv injection, p < 0.05
# Protocol: as §1, with “Skov-3 and A549 subcutaneous xenografts were established through bi-lateral flank injections of 5 × 10^6 cells, resuspended in 100 μL PBS containing 16.7% Matrigel (Corning Inc., MA, USA).” left out
# For biodistribution assessment of conjugates 1–5, mice were intravenously (iv) injected with 100 μL of a 10-μM conjugate solution when mean tumour volumes reached ≈150 mm^3, corresponding to a dose of 500 nmol/mouse. […] Fluorescence signals were analysed with the Living Imaging® software v4.5 (PerkinElmer Inc.) and expressed as average radiance (p/s/cm^2/sr). […] Next, subcutaneous xenograft models were imaged at the pre-determined optimal time points, which were 4 h for conjugates 1, 2 and 3 and 24 h for conjugates 4 and 5.
# [5] = 24 h after iv injection, Skov-3 subcutaneous xenograft
# [6] = 24 h after iv injection, exposure time 2000 ms
# [7] = Skov-3 xenografted mice, 24 h after iv injection
# [8] = 4 h after iv injection, Skov-3 subcutaneous xenograft
# [9] = 8 h after iv injection, Skov-3 subcutaneous xenograft
# [10] = 4 h after iv injection, exposure time 2000 ms
Stokes shift ([1]; DMSO),λem ([1]; DMSO),λex ([1]; DMSO),Stokes shift ([1]; culture medium),λem ([1]; culture medium),λex ([1]; culture medium),excretion route ([2]; iv injection),ex vivo organ accumulation (IVIS Spectrum) ([3]; 24 h after iv injection),"ex vivo fluorescence in the kidneys (FLARE) [3, 7]",SMILES,"tumour to background ratio (TBR) [2, 5]","ex vivo fluorescence signal in tumours (FLARE) [3, 6]","tumour to background ratio (TBR) [2, 8]","tumour to background ratio (TBR) [2, 9]",residual fluorescence in healthy organs in vivo ([2]; 24 h after iv injection),"ex vivo fluorescence signal in tumours (FLARE) [3, 10]",further results
24 nm,820 nm,796 nm,15 nm,804 nm,789 nm,hepatobiliary excretion,in the stomach,63.9 ± 11.3 AU,"C[N+]1=C(/C=C/C2=C(Cl)C(=C/C=C3/N(CCCCCC(=O)NCCNC(=O)CC[C@H](NC(=O)c4ccc(NCc5cnc6nc(N)[nH]c(=O)c6n5)cc4)C(=O)O)c4ccccc4C3(C)C)/CCC2)C(C)(C)c2ccccc21 [Conjugate 5, 2-((E)-2-((E)-3-(2-((E)-1-(6-((2-((S)-4-(4-(((2-amino-4-oxo-3,4-dihydropteridin-6-yl)methyl)amino)benzamido)-4-carboxybutanamido)ethyl)amino)-6-oxohexyl)-3,3-dimethylindolin-2-ylidene)ethylidene)-2-chlorocyclohex-1-en-1-yl)vinyl)-1,3,3-trimethyl-3H-indol-1-ium]",2.1 ± 0.6,60.9 ± 6.3 AU,,,,,"time at which tumour fluorescence became evident ([2]; post-injection, Skov-3 subcutaneous xenograft): 4 h"
28 nm,826 nm,798 nm,25 nm,808 nm,783 nm,renally cleared,,,"CC1(C)C(/C=C/C2=C(Oc3ccc(S(=O)(=O)O)cc3)C(=C/C=C3/N(CCCCS(=O)(=O)O)c4ccc(S(=O)(=O)[O-])cc4C3(C)C)/CCC2)=[N+](CCCCCC(=O)NCCNC(=O)CC[C@H](NC(=O)c2ccc(NCc3cnc4nc(N)[nH]c(=O)c4n3)cc2)C(=O)O)c2ccc(S(=O)(=O)O)cc21 [Conjugate 3, 1-(6-((2-((S)-4-(4-(((2-amino-4-oxo-3,4-dihydropteridin-6-yl)methyl)amino)benzamido)-4-carboxybutanamido)ethyl)amino)-6-oxohexyl)-2-((E)-2-((E)-3-(2-((E)-3,3-dimethyl-5-sulfonato-1-(4-sulfonatobutyl)indolin-2-ylidene)ethylidene)-2-(4-sulfonatophenoxy)cyclohex-1-en-1-yl)vinyl)-3,3-dimethyl-3H-indol-1-ium-5-sulfonate]",,,1.2 ± 0.2,1.4 ± 0.3,residual fluorescence signal in the kidneys,189.7 ± 27.1 AU,"ex vivo fluorescence in the kidneys (FLARE) ([3]; Skov-3 xenografted mice, 4 h after iv injection): 913.6 ± 248.9 AU"
24 nm,816 nm,792 nm,25 nm,802 nm,777 nm,renally cleared,,,"CC1(C)C(/C=C/C2=C(Oc3ccc(CCC(=O)NCCNC(=O)CC[C@H](NC(=O)c4ccc(NCc5cnc6nc(N)[nH]c(=O)c6n5)cc4)C(=O)O)cc3)C(=C/C=C3/N(CCC[N+](C)(C)C)c4ccc(S(=O)(=O)O)cc4C3(C)C)/CCC2)=[N+](CCC[N+](C)(C)C)c2ccc(S(=O)(=O)O)cc21 [Conjugate 1, 2-((E)-2-((E)-2-(4-(3-((2-((S)-4-(4-(((2-amino-4-oxo-3,4-dihydropteridin-6-yl)methyl)amino)benzamido)-4-carboxybutanamido)ethyl)amino)-3-oxopropyl)phenoxy)-3-(2-((E)-3,3-dimethyl-5-sulfonato-1-(3-(trimethylammonio)propyl)indolin-2-ylidene)ethylidene)cyclohex-1-en-1-yl)vinyl)-3,3-dimethyl-1-(3-(trimethylammonio)propyl)-3H-indol-1-ium-5-sulfonate]",,,1.9 ± 0.3,2.0 ± 0.4,residual fluorescence signal in the kidneys,156.9 ± 22.0 AU,
42 nm,832 nm,790 nm,36 nm,820 nm,784 nm,hepatobiliary excretion,mainly in the liver,100.4 ± 37.8 AU,"CC1(C)C(/C=C/C=C/C=C/C=C2\N(CCCCCC(=O)NCCNC(=O)CC[C@H](NC(=O)c3ccc(NCc4cnc5nc(N)[nH]c(=O)c5n4)cc3)C(=O)O)c3ccc4ccccc4c3C2(C)C)=[N+](CCCCS(=O)(=O)[O-])c2ccc3ccccc3c21 [Conjugate 4, 4-(2-((1E,3E,5E,7Z)-7-(3-(6-((2-((S)-4-(4-(((2-amino-4-oxo-3,4-dihydropteridin-6-yl)methyl)amino)benzamido)-4-carboxybutanamido)ethyl)amino)-6-oxohexyl)-1,1-dimethyl-1,3-dihydro-2H-benzo[e]indol-2-ylidene)hepta-1,3,5-trien-1-yl)-1,1-dimethyl-1H-benzo[e]indol-3-ium-3-yl)butane-1-sulfonate]",1.0 ± 0.1,56.4 ± 4.1 AU,,,,,"tumour to background ratio (TBR) ([2]; 0.5 h after iv injection, Skov-3 subcutaneous xenograft): 1.3 ± 0.3; accumulation in tumours ([2]; Skov-3 subcutaneous xenograft, iv injection): no accumulation in tumours; ex vivo fluorescence intensity in the liver (FLARE) ([3]; Skov-3 xenografted mice, 24 h after iv injection, exposure time 2000 ms): 283.3 ± 38.7 AU"
28 nm,802 nm,774 nm,28 nm,788 nm,760 nm,renally cleared,,,"CC1(C)C(/C=C/C2=C(c3ccc(CCC(=O)NCCNC(=O)CC[C@H](NC(=O)c4ccc(NCc5cnc6nc(N)[nH]c(=O)c6n5)cc4)C(=O)O)cc3)C(=C/C=C3/N(CCC[N+](C)(C)C)c4ccc(S(=O)(=O)O)cc4C3(C)C)/CCC2)=[N+](CCC[N+](C)(C)C)c2ccc(S(=O)(=O)O)cc21 [Conjugate 2, 2-((E)-2-((E)-4'-(3-((2-((S)-4-(4-(((2-amino-4-oxo-3,4-dihydropteridin-6-yl)methyl)amino)benzamido)-4-carboxybutanamido)ethyl)amino)-3-oxopropyl)-6-(2-((E)-3,3-dimethyl-5-sulfonato-1-(3-(trimethylammonio)propyl)indolin-2-ylidene)ethylidene)-3,4,5,6-tetrahydro-[1,1'-biphenyl]-2-yl)vinyl)-3,3-dimethyl-1-(3-(trimethylammonio)propyl)-3H-indol-1-ium-5-sulfonate]",,,1.8 ± 0.2,2.0 ± 0.2,,213.1 ± 51.0 AU,"time that the fluorescence signal in Skov-3 tumours was sustained ([2]; after iv injection, last imaging time point 48 h): up to 48 h; difference in average radiance between Skov-3 and A549 tumours [4]: significant difference"
